Key:
[1] = test system: uropathogenic Escherichia coli (UPEC); assay: Rat UTI model (Example 1): urine bacterial counts after oral PPS; format: in vivo, Sprague-Dawley (SD) rats
Excerpt: (§1) UPEC is known as the primary cause of UTI.
(§2) The rats are sacrificed at Day 14.

[2] = test system: peripheral white blood cell (WBC) counts; assay: Rat UTI model (Example 1): peripheral white blood cell counts; format: in vivo, Sprague-Dawley (SD) rats; details: PPS 30 mg/kg/day oral Day −14 to Day 0
Excerpt: as §1, §2
FIG. 4 is a bar chart comparing peripheral white blood cell (WBC) counts in the control group, the UTI model group, and the PPS prevention group, in accordance with an embodiment of the present disclosure. The WBC counts in different groups reflect conditions of the UPEC infection in the rats: a higher WBC count may represent a more severe UPEC infection. […] The WBC counts in the UTI model group have remained as the highest among 3 groups on Day 1, Day 3, and Day 7.

IL-1β = assay: Rat UTI model (Example 1): Luminex assay of peripheral blood IL-1β; format: in vivo, Sprague-Dawley (SD) rats; details: PPS 30 mg/kg/day oral Day −14 to Day 0; Day 3
Excerpt: as §1, §2
(§3) Luminex assays are used to evaluate peripheral blood biomarkers relevant to infection or inflammation. FIG. 6 is a bar chart comparing the Luminex assay results for IL-1β in the control group, the UTI model group, and the PPS prevention group, in accordance with an embodiment of the present disclosure. IL-1β level is relevant to a current inflammation or infection, and a higher IL-1β level indicates a more severe inflammation. […] FIG. 7 is a bar chart comparing the Luminex assay results for TNF-α in the control group, the UTI model group, and the PPS prevention group, in accordance with an embodiment of the present disclosure. TNF-α is a cytokine that promotes inflammatory responses, and a higher TNF-α level indicates a more severe inflammation in the rats.

TNF-α = assay: Rat UTI model (Example 1): Luminex assay of peripheral blood TNF-α; format: in vivo, Sprague-Dawley (SD) rats; details: PPS 30 mg/kg/day oral Day −14 to Day 0; Day 3 and Day 14
Excerpt: as §1, §2, §3

bladder epithelium = assay: Rat UTI model (Example 1): H/E staining of bladder tissue; format: in vivo, Sprague-Dawley (SD) rats; details: PPS 30 mg/kg/day oral Day −14 to Day 0; rats sacrificed at Day 14
Excerpt: as §1, §2

[3] = test system: recurrent urinary tract infection (rUTI); assay: Phase II randomized controlled trial of oral PPS for prevention of rUTI (Example 2): efficacy; format: in vivo, human subjects
Excerpt: The current example is a multicenter, prospective, open-label, phase II, randomized controlled trial. The purpose of the current example is to investigate the effects of orally administered PPS in the prevention of rUTI in the human subjects. The study period of the current trial is 16 weeks, which is expected to cover most of the rUTI episodes.
The human subjects in the current example are screened and recruited in the OPD. Eligible patients are 20-70 year-old female patients with confirmed UTI ≥2 times in the past 6 months, or ≥3 times in the past 12 months, and had prior antibiotics treatment for previous UTI episodes(s). The eligible patients are without lower urinary tract symptoms and completely recovered from the last UTI episode. Patients with the following criteria are also excluded: allergic reaction to PPS, undergoing surgery within 24 week in a follow-up period of the current trial, participating in any intervention study 90 days before screening, bladder instillation with hyaluronic acid within 3 months before screening, pregnancy, breast feeding, upper urinary tract infection, fever >38° C., serum WBC count greater than 12,000/mm^3, urinary catheterization within 1 week, urinary tract anomalies, interstitial cystitis, urolithiasis, renal insufficiency, cancer history, immunocompromised, organ transplant history, pelvic organ prolapse stage II or higher, post-voiding residual urine more than 100 ml, stress or urge urinary incontinence, and positive urine culture during screening. 45 patients are screened for eligibility, with only 27 patients remained and 18 patients are excluded. The screening in the current trial is defined as Visit 1.
For analyzing results of the current study, all statistical analyses are performed using MedCalc Statistical Software version 19.0.3. The Mann-Whitney U test and Student's t-test are used to compare medians and means, respectively. Contingency tables are constructed for comparisons using a chi-square test and Fisher's exact test. The Kaplan—Meier method is used for the construction of survival curves. A log-rank test and Cox proportional hazard model are used to compare recurrence-free survival duration between groups. All tests are 2-tailed. A P-value <0.05 is considered significant.

[4] = test system: uropathogenic Escherichia coli (UPEC); assay: Rat UTI model, low-dose PPS (Example 3): urine bacterial counts; format: in vivo, SD rats; details: for urine bacterial counts compared with UTI model group: Day 3
Excerpt: (§4) The purpose of the current example is to investigate effects of a reduced dosage of PPS for preventing UTI in the rat URI model. The SD rats are randomized and grouped into a control group (N=7), an UTI model group (N=10), a normal PPS dosage group (N=10), and a reduced PPS dosage group (N=5). The UTI model group, the normal PPS dosage group, and the reduced PPS dosage group are infected with UPEC on Day 1. The method of infection and the amount of UPEC being injected to the rats of the current study are the same as the UPEC infection in Example 1. […] The control group is not infected by the UPEC or treated by PPS. Urine samples and the blood samples of the rats are collected on Day 0, 3, and 7, using the same techniques and tools as described in Example 1. The collected urine samples are diluted 10, 10^2, 10^3, 10^4, and 10^5 folds, and the diluted urine samples are cultured on BSA plates and incubated for 12 hours at 37° C. UPEC colonies on the BSA plates are counted after the incubation. In FIGS. 10 and 11, the UTI model group is denoted as “UTI”, the normal PPS dosage group is denoted as “UROpre”, and the reduced PPS dosage group is denoted as “low UROpre”.

peripheral WBC count = assay: Rat UTI model, low-dose PPS (Example 3): peripheral WBC count percentages; format: in vivo, SD rats; details: 8.5 mg/kg/day oral Day −14 to Day 0
Excerpt: as §4
FIG. 11 is a bar chart comparing the peripheral WBC count percentages of the control group, the reduced PPS dosage group, and the UTI model group, in accordance with an embodiment of the present disclosure. The WBC counts reflects a current urinary tract infection episode, the WBC count percentage can be a relative indicator comparing the WBC counts before the infection and after the infection. The WBC count percentages in FIG. 11 are used to examine the efficacy of the reduced PPS dosage in the rat UTI model. The WBC counts on Day 0 in the control group, the reduced PPS dosage group, and the UTI group are designated as 100% in FIG. 11. The WBC count percentages of the 3 groups are elevated on Day 1, reflecting more WBCs entering the peripheral blood after the infection. On Day 3, the WBC count percentage of the low UROpre group is about 120%, whereas the WBC count percentage of the UTI group is about 130%.

[5] = in vivo
Procedure: The 27 patients remained are randomized to a PPS group (N=13) and a control group (N=14). The PPS are orally administered to the PPS group according to a continuous daily dosing regimen of 100 mg, 3 times a day for the first 8 weeks (total administered amount is 300 mg PPS per day). Then, the dosing regimen is changed to 100 mg 2 times a day for the remaining 8 weeks (total administered amount is 200 mg PPS per day). The PPS can be taken either 1 hour before or 2 hours after meal. Any forms of UTI prophylaxis or treatment, including antibiotics, hyaluronic acid instillation, cranberry, nonsteroidal anti-inflammatory drugs, or steroids, are forbidden in the study period of the current trial. […] The patients in both groups are visited every four week from the 0th week (Visit 2), the 4th week (Visit 3), the 8th week (Visit 4), the 12th week (Visit 5), to the 16th week (Visit 6), and Visit 6 is marked as the end of the current trial.
The patients are required to report relevant urinary tract symptoms to an investigator, during each of the visits. […] Information regarding adverse events, including grade of severity (according to National Cancer Institute Common Terminology Criteria for Adverse Events, version 5.0), timing, and their relationship with the medication assessed by the investigator, are also recorded at each of the visits. […]

[6] = orally administered PPS, previous studies; cited from earlier work
[7] = pH 6; cited from earlier work
[8] = test system: peripheral red blood cell (RBC) counts; assay: Rat UTI model (Example 1): peripheral red blood cell counts; details: PPS 30 mg/kg/day oral Day −14 to Day 0; control, UTI model and PPS prevention groups
Procedure: The current example treats Sprague-Dawley (SD) rats with uropathogenic Escherichia coli (UPEC) to establish the rat UTI model. […] The UPEC used in the current example is ATCC®700336™, designation: J96 (serotype O4:K6), purchased from Food Industry Research and Development Institute of Taiwan. The UPEC is stored in trypticase soy agar/broth, and is centrifuged at 5,000 rpm for 10 minutes. Pellets of the UPEC after the centrifugation are dissolved in 10 mL sterile phosphate buffered saline (PBS). The cell density of the UPEC is adjusted to an optical density (OD600) of 1 to 1.1. This optical density is corresponded to the cell density of 8×10^7 to 2×10^8 colony forming units (CFU)/mL. The UPEC is then made into a 250 μL 0.9% N/S solution of 8×10^7 CFU for treating the rats.
The UTI model group and the PPS prevention group are infected with the UPEC by trans-urethral catherization on Day 1. The PPS prevention group is treated with the PPS by oral gavage with a 18G stainless-steel gavage needle attached to a 3 mL tuberculin syringe from Day −14 to Day 0. The PPS dosage for the rats in the current example is 30 mg/kg/day. […] The UPEC in the LB broths and on the LB agar plates are quantified after the incubation. […]

pentosan polysulfate sodium [PPS]
urine bacterial counts compared with UTI model group ([1]; PPS 30 mg/kg/day oral Day −14 to Day 0, UPEC on Day 1, Day 1, Day 3 and Day 7): lower than the urine bacterial counts in the UTI model group | urine bacterial counts ([1]; PPS 30 mg/kg/day oral gavage Day −14 to Day 0, Day 0): below 10^3 CFU/mL | overall effect on UTI in the rats ([1]; PPS oral 30 mg/kg/day for 14 days): effectively reduces UTI | peripheral WBC counts compared with UTI model group ([2]; Day 1, Day 3 and Day 7): fewer than the WBC counts in the UTI model group | peripheral WBC counts, time course ([2]; after Day 3): in steady decline after Day 3 | peripheral IL-1β level compared with UTI model group (IL-1β): significantly lower than the UTI model group | peripheral TNF-α levels compared with UTI model group (TNF-α): lower TNF-α levels than the UTI model group | H/E staining result of bladder tissue (bladder epithelium): fresh layer of accumulated epithelial cells | overall UTI recurrence free survival compared with control group (Kaplan-Meier) ([3]; 26 patients, log-rank test p=0.0004): significantly higher in the PPS group than in the control group | UTI recurrence, % ([3]; PPS group N = 12, 300 mg/day for 8 weeks then 200 mg/day for 8 weeks, oral, 16 weeks, control 64.3%, p <0.001): 0% | lower urinary tract symptoms or positive urine analysis ([3]; PPS group, 16-week study period): none of the patients in the PPS group had lower urinary tract symptoms nor positive urine analysis | efficacy in preventing rUTI in the human subjects ([3]; about 3.34 mg/kg/day, total 200 mg PPS per day, remaining 8 weeks): also therapeutically effective | efficacy in preventing rUTI in the human subjects ([3]; less than 5 mg/kg/day, total 300 mg PPS per day (reference weight 60 kg), first 8 weeks): proven to be therapeutically effective | protective effect in preventing rUTI in the human subjects ([3]; oral administration of PPS, conclusion of the trial): excellent protective effect | therapeutic effect in the rat UTI model ([4]; 8.5 mg/kg/day orally administered PPS, 14 days): therapeutically effective | urine bacterial counts compared with UTI model group ([4]; normal PPS dosage 30 mg/kg/day oral Day −14 to Day 0 (UROpre)): lower than the UTI model group | urine bacterial counts compared with UTI model group ([4]; reduced PPS dosage 8.5 mg/kg/day oral Day −14 to Day 0 (low UROpre)): lower than the UTI model group | peripheral WBC count percentage (Day 0 = 100%) (peripheral WBC count; Day 1): elevated | peripheral WBC count percentage (Day 0 = 100%) (peripheral WBC count; Day 3, UTI group about 130%): about 120% | peripheral WBC count percentage (Day 0 = 100%) (peripheral WBC count; Day 7): about 60% | peripheral WBC count percentage compared with UTI group (peripheral WBC count; Day 7): significantly lower than that of the UTI group | adverse effects observed in the trial [5]: none of the above adverse effects are observed | complete blood counts, liver function tests and coagulant-related tests [5]: no abnormalities | adverse effect: abdominal pain [6]: 2% | adverse effect: diarrhea [6]: 1-14.9% | adverse effect: dizziness [6]: 1% | adverse effect: dyspepsia [6]: 2% | adverse effect: headache [6]: 1-2.9% | adverse effect: liver function abnormalities [6]: 1-2% | adverse effect: nausea [6]: 1.4%-7.9% | adverse effect: rash [6]: 3% | adverse effect: rectal hemorrhage [6]: 4% | solubility in water [7]: up to 50% | peripheral RBC counts, difference among groups [8]: no significant differences
